The test deals with T1, KRAS G12C (GMPPNP-loaded, Cys-light, amino acids 1-169) and cRAF Ras-binding domain interaction (Homo sapiens, UniProt P01116, C118S/C51S/C80L/G12C).
T1 construct: truncated version comprising amino acids 1-169
Put plainly: Inhibition of KRAS G12C and cRAF binding (AlphaScreen). Conditions: KRAS G12C preloaded with GMPPNP, 2 hours compound incubation, room temperature. The protocol: The AlphaScreen technology was used to determine IC50s for compound inhibition of KRAS G12C (present as the Cys-light (C51S, C80L and C118S), truncated version comprising amino acids 1-169) and cRAF interaction. Compounds were diluted in 100% DMSO and each compound concentration was spotted at 200 nl/well onto low volume, white 384 well plates. The KRAS G12C contained a biotin-AviTag and the cRaf, as Ras-binding domain (amino acids 50-131, RBD), was GST-tagged. KRAS G12C was preloaded with the GTP analogue Guanosine 5′-[…] (GMPPNP). The KRAS G12C was diluted in 25 mM Hepes, pH 7.4, 150 mM NaCl, 5 mM MgCl2, 0.01% TritonX-100 and 10 μM GMPPNP and added at 10 ul/well to compound-spotted plates resulting in a DMSO concentration of 2%. Plates were incubated for 2 hours. A mixture of RBD and the AlphaScreen streptavidin donor and glutathione acceptor beads diluted in 25 mM Hepes, pH 7.4, 150 mM NaCl, 5 mM MgCl2, 0.01% TritonX-100 and 2% DMSO was then added at 10 ul/well and incubated for 60-90 minutes before the samples were read for emission at 570 nm after excitation of the donor beads at 680 nm. All incubations were performed at room temperature. The final top compound concentration was 50 μM with 1:3 titrations for 10-point dose response curves. Final assay conditions were 0.5 nM KRAS G12C, 0.75 nM RBD and 5 μg/ml each of AlphaScreen donor and acceptor beads. IC50s were determined using nonlinear regression fit of [inhibitor] vs. response (4 parameters).
A counter assay was also set up to rule out inhibitors of the AlphaScreen technology itself. Compound plates were incubated for 2 hours as above with buffer only. The AlphaScreen beads were added as above except biotin-AviTag-GST was substituted for the RBD. Samples were read and analyzed as above.
A general note: Bead proximity is the source of the signal in Alpha formats.

Structures are written as SMILES.

T1 sequence (P01116 1-169 isoform P01116-2 G12C/C51S/C80L/C118S): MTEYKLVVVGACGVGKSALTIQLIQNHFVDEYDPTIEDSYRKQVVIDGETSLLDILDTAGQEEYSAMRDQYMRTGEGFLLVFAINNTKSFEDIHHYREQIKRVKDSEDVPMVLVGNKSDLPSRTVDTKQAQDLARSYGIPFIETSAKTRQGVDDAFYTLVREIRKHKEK

`COC(=O)/C=C(\F)C(=O)N1CCC(N(C)c2nc(OCC34CCCN3CCC4)nc3c2CCN(c2cccc4cccc(Cl)c24)C3)C1` (stereo not drawn) [Compound 1] gave a concentration for half-maximal inhibition (IC50) of 10 to 100 nM.
In the case of `Cc1nccc(/C=C(\F)C(=O)N2CCN(c3nc(OCC45CCCN4CCC5)nc4c(F)c(-c5cccc6cccc(Cl)c56)ncc34)C[C@@H]2CC#N)n1` [Compound 2] it was less than 10 nM; in that of `Cc1nsc(/C=C(\F)C(=O)N2CCN(c3nc(OCC45CCCN4CCC5)nc4c3CCN(c3cccc5ccc(F)c(Cl)c35)C4)C[C@@H]2CC#N)n1` [Compound 3], less than 10 nM.
In the case of `CC(C)c1noc(/C=C(\F)C(=O)N2CCN(c3nc(OCC45CCCN4CCC5)nc4c(F)c(-c5cccc6cccc(Cl)c56)ncc34)C[C@@H]2CC#N)n1` [Compound 4] it was less than 10 nM.
Take `Cc1nccc(/C=C(\F)C(=O)N2CCN(c3nc(OC[C@@]45CCCN4C[C@H](F)C5)nc4c(F)c(-c5cccc6ccc(F)c(Cl)c56)ncc34)C[C@@H]2CC#N)n1` [Compound 5, 2-((S)-4-(7-(8-chloro-7-fluoronaphthalen-1-yl)-8-fluoro-2-(((2R,7aS)-2-fluorotetrahydro-1H-pyrrolizin-7a(5H)-yl)methoxy)pyrido[4,3-d]pyrimidin-4-yl)-1-((Z)-2-fluoro-3-(2-methylpyrimidin-4-yl)acryloyl)piperazin-2-yl)acetonitrile]: the IC50 was less than 10 nM.
In the case of `N#CC[C@H]1CN(c2nc(OC[C@@]34CCCN3C[C@H](F)C4)nc3c(F)c(-c4cccc5cccc(Cl)c45)ncc23)CCN1C(=O)/C(F)=C/c1ccnc(C2CC2)n1` [Compound 6], the IC50 was less than 10 nM.
With `N#CC[C@H]1CN(c2nc(OC[C@@]34CCCN3C[C@H](F)C4)nc3c(F)c(-c4cccc5ccc(F)c(Cl)c45)ncc23)CCN1C(=O)/C(F)=C\c1ccnc(C2CC2)n1` [Compound 7] the figure was 10 to 100 nM; with `N#CC[C@H]1CN(c2nc(OC[C@@]34CCCN3C[C@H](F)C4)nc3c(F)c(-c4cccc5ccc(F)c(F)c45)ncc23)CCN1C(=O)/C(F)=C\c1ccnc(C2CC2)n1` [Compound 8], 10 to 100 nM.
With `CCc1c(F)ccc2cccc(-c3ncc4c(N5CCN(C(=O)/C(F)=C/c6ccnc(C)n6)[C@@H](CC#N)C5)nc(OC[C@@]56CCCN5C[C@H](F)C6)nc4c3F)c12` [Compound 9, 2-((S)-4-(7-(8-ethyl-7-fluoronaphthalen-1-yl)-8-fluoro-2-(((2R,7aS)-2-fluorotetrahydro-1H-pyrrolizin-7a(5H)-yl)methoxy)pyrido[4,3-d]pyrimidin-4-yl)-1-((Z)-2-fluoro-3-(2-methylpyrimidin-4-yl)acryloyl)piperazin-2-yl)acetonitrile] the figure was less than 10 nM; with `CCc1c(F)ccc2cccc(-c3ncc4c(N5CCN(C(=O)/C(F)=C\c6ccnc(C7CC7)n6)[C@@H](CC#N)C5)nc(OC[C@@]56CCCN5C[C@H](F)C6)nc4c3F)c12` [Compound 10], 100 to 500 nM.
As for `Cc1nccc(/C=C(\F)C(=O)N2CCN(c3nc(OC[C@@]45CCCN4C[C@H](F)C5)nc4c(F)c(-c5cccc6ccc(F)c(F)c56)ncc34)C[C@@H]2CC#N)n1` [Compound 11, 2-((S)-4-(7-(7,8-difluoronaphthalen-1-yl)-8-fluoro-2-(((2R,7aS)-2-fluorotetrahydro-1H-pyrrolizin-7a(5H)-yl)methoxy)pyrido[4,3-d]pyrimidin-4-yl)-1-((Z)-2-fluoro-3-(2-methylpyrimidin-4-yl)acryloyl)piperazin-2-yl)acetonitrile], the IC50 is less than 10 nM.
With `CN1CCC1/C=C(/F)C(=O)N1CCN(c2nc(OC[C@@]34CCCN3C[C@H](F)C4)nc3c(F)c(-c4cccc5ccc(F)c(F)c45)ncc23)C[C@@H]1CC#N` (stereo partly drawn) [Compound 12] the figure was not below 500 nM.
With `CN1CC[C@@H]1/C=C(\F)C(=O)N1CC[C@@H](N(C)c2nc(OC[C@@]34CCCN3C[C@H](F)C4)nc3c(F)c(-c4cccc5ccc(F)c(F)c45)ncc23)C1` [Compound 13] the figure was 100 to 500 nM.
With `CN1CC[C@@H]1/C=C(/F)C(=O)N1CC[C@@H](N(C)c2nc(OC[C@@]34CCCN3C[C@H](F)C4)nc3c(F)c(-c4cccc5ccc(F)c(F)c45)ncc23)C1` [Compound 14] the figure was 10 to 100 nM; with `CCc1c(F)ccc2cccc(-c3ncc4c(N5CCN(C(=O)/C(F)=C/c6cc(C)nc(C)n6)[C@@H](CC#N)C5)nc(OC[C@@]56CCCN5C[C@H](F)C6)nc4c3F)c12` [Compound 15], less than 10 nM.
In turn, `CN1CCC1/C=C(\F)C(=O)N1CCN(c2nc(OC[C@@]34CCCN3C[C@H](F)C4)nc3c(F)c(-c4cccc5ccc(F)c(Cl)c45)ncc23)C[C@@H]1CC#N` (stereo partly drawn) [Compound 16, 2-((2S)-4-(7-(8-chloro-7-fluoronaphthalen-1-yl)-8-fluoro-2-(((2R,7aS)-2-fluorotetrahydro-1H-pyrrolizin-7a(5H)-yl)methoxy)pyrido[4,3-d]pyrimidin-4-yl)-1-((Z)-2-fluoro-3-(1-methylazetidin-2-yl)acryloyl)piperazin-2-yl)acetonitrile] displayed a half-maximal inhibitory concentration (IC50) of 100 to 500 nM.
With `CN1CCC1/C=C(/F)C(=O)N1CCN(c2nc(OC[C@@]34CCCN3C[C@H](F)C4)nc3c(F)c(-c4cccc5ccc(F)c(Cl)c45)ncc23)C[C@@H]1CC#N` (stereo partly drawn) [Compound 17], the IC50 was not below 500 nM.
In turn, `Cc1nccc(/C=C(\F)C(=O)N2CCN(c3nc(OC[C@@]45CCCN4C[C@H](F)C5)nc4c(F)c(-c5cccc6cccc(Cl)c56)ncc34)C[C@@H]2CC#N)n1` [Compound 18] returned an IC50 of less than 10 nM.
With `Cc1cc(/C=C(\F)C(=O)N2CCN(c3nc(OC[C@@]45CCCN4C[C@H](F)C5)nc4c(F)c(-c5cccc6cccc(F)c56)ncc34)C[C@@H]2CC#N)nc(C)n1` [Compound 19] the figure was less than 10 nM.
In the case of `Cc1nccc(/C=C(\F)C(=O)N2CCN(c3nc(OC[C@@]45CCCN4C[C@H](F)C5)nc4c(F)c(-c5cccc(Cl)c5C5CC5)ncc34)C[C@@H]2CC#N)n1` [Compound 20] it was less than 10 nM; in that of `N#CC[C@H]1CN(c2nc(OC[C@@]34CCCN3C[C@H](F)C4)nc3c(F)c(-c4cccc5cccc(Cl)c45)ncc23)CCN1C(=O)/C(F)=C/CN1[C@@H]2CC[C@H]1COC2` [Compound 21], not below 500 nM; in that of `Cc1nccc(/C=C(\F)C(=O)N2CCN(c3nc(OC[C@@]45CCCN4C[C@H](F)C5)nc4c(F)c(-c5cccc6ccc(F)c(C)c56)ncc34)C[C@@H]2CC#N)n1` [Compound 22], less than 10 nM.
Regarding `Cc1nccc(/C=C(\F)C(=O)N2CCN(c3nc(OC[C@@]45CCCN4C[C@H](F)C5)nc4c(F)c(-c5cccc6c(C)c(F)ccc56)ncc34)C[C@@H]2CC#N)n1` [Compound 23], the IC50 is 10 to 100 nM.
With `N#CC[C@H]1CN(c2nc(OC[C@@]34CCCN3C[C@H](F)C4)nc3c(F)c(-c4cccc5ccc(F)c(F)c45)ncc23)CCN1C(=O)/C(F)=C/CN1CCOCC1` [Compound 24] the figure was 100 to 500 nM; with `Cc1cc(/C=C(\F)C(=O)N2CCN(c3nc(OC[C@@]45CCCN4C[C@H](F)C5)nc4c(F)c(-c5cccc6cccc(Cl)c56)ncc34)C[C@@H]2CC#N)nc(C)n1` [Compound 26], less than 10 nM; with `Cc1cc(/C=C(\F)C(=O)N2CCN(c3nc(OC[C@@]45CCCN4C[C@H](F)C5)nc4c(F)c(-c5cccc6ccc(F)c(F)c56)ncc34)C[C@@H]2CC#N)nc(C)n1` [Compound 27], less than 10 nM.
In the case of `N#CC[C@H]1CN(c2nc(OC[C@@]34CCCN3C[C@H](F)C4)nc3c(F)c(-c4cccc5cccc(F)c45)ncc23)CCN1C(=O)/C(F)=C/CN1[C@@H]2CC[C@H]1COC2` [Compound 28] it was not below 500 nM.
The molecule `C#Cc1c(F)ccc2cccc(-c3ncc4c(N5CCN(C(=O)/C(F)=C/c6cc(C)nc(C)n6)[C@@H](CC#N)C5)nc(OC[C@@]56CCCN5C[C@H](F)C6)nc4c3F)c12` [Compound 29, 2-((S)-1-((Z)-3-(2,6-dimethylpyrimidin-4-yl)-2-fluoroacryloyl)-4-(7-(8-ethynyl-7-fluoronaphthalen-1-yl)-8-fluoro-2-(((2R,7aS)-2-fluorotetrahydro-1H-pyrrolizin-7a(5H)-yl)methoxy)pyrido[4,3-d]pyrimidin-4-yl)piperazin-2-yl)acetonitrile] yielded an IC50 of less than 10 nM.
Consider `C#Cc1c(F)ccc2cccc(-c3ncc4c(N5CCN(C(=O)/C(F)=C/c6ccnc(C)n6)[C@@H](CC#N)C5)nc(OC[C@@]56CCCN5C[C@H](F)C6)nc4c3F)c12` [Compound 30], for which the half-inhibitory concentration (IC50) was less than 10 nM.
With `N#CC[C@H]1CN(c2nc(OC[C@@]34CCCN3C[C@H](F)C4)nc3c(F)c(-c4cccc5ccc(F)c(Cl)c45)ncc23)CCN1C(=O)/C(F)=C/CN1[C@@H]2CC[C@H]1COC2` [Compound 31], the IC50 is not below 500 nM.

In general, IC50 refers to the midpoint of a concentration-inhibition curve. A higher IC50 goes with a need for much substance.

The values are drawn from US20260274867A1, “PYRIDO[4,3-D]PYRIMIDINE DERIVATIVES AS MUTANT KRAS G12C INHIBITORS FOR THE TREATMENT OF CANCER” (Frontier Medicines Corporation, priority 2023, published 2026).
